No end group written: not given here.
Assays:
ALDH2 = assay: 2-D IEF phosphorylation of ALDH2 in hearts after I/R; parameters: species or system rat; conditions: cardiac I/R
Procedure: (§1) An ex vivo model of acute ischemic heart damage was used, which involves a 30 min equilibration period, followed by 30 min of global ischemia, which in turn is followed by 60 min of reperfusion. The hearts were perfused with 1 μM TAT or TAT-conjugated peptide. Normoxic control hearts were subjected to 90 min perfusion in the absence of ischemia. Coronary effluent was collected to determine creatine phosphokinase (CPK) release during the first 30 min of the reperfusion period. At the end of the reperfusion period, hearts were sliced into 1-mm-thick transverse sections and incubated in triphenyltetrazolium chloride solution (TTC, 1% in phosphate buffer, pH 7.4) at 37° C. for 15 min. Infarct size was expressed as a percentage of the risk zone (equivalent to total LV muscle mass) (methods described in Brandman et al., 2007, J. Biol. Chem., 282:4113-4123; Inagaki et al., 2003, Circulation, 108:869-875).
2-D IEF/SDS polyacrylamide gel electrophoresis using rat heart samples was performed as previously described (Chen et al., 2008, Science, 321:1493-1495). 10% SDS gel electrophoresis and Western blotting were carried out by standard methods using PDK2 c-term rabbit (Abgent, Calif., USA), PDH subunit E1 alpha monoclonal (Invitrogen, Calif., USA) and ALDH2 goat (Santa Cruz Biotechnology, CA, USA) antibodies. […]

E1 subunit of PDH = assay: 2-D IEF phosphorylation of PDH E1 subunit in hearts after I/R; parameters: species or system rat; conditions: cardiac I/R
Procedure: as §1, with “108:869-875). […]” for “108:869-875).”
As described above, δPKC phosphorylation of PDK following cardiac ischemia and reperfusion leads to the phosphorylation and a decline in the activity of pyruvate dehydrogenase (PDH) (Churchill et al., 2005, Circ. Res., 97:78-85). […] Since ΨPDK is derived from the PDK homologous sequence in δPKC, it was next determined whether PDK phosphorylation is affected by ΨPDK treatment.

[1] = biological target: T1, δPKC phosphorylation of Drp1 (Homo sapiens, UniProt Q05655); assay: In vitro kinase assay: δPKC phosphorylation of Drp1; type: biochemical
T1 construct: purchased Invitrogen
Procedure: (§2) In vitro phosphorylation assay. To determine the level of PDK and Drp1 phosphorylation in presence of ΨPDK, δPKC recombinant protein (Invitrogen, Calif., USA; 200 ng) was incubated with or without peptides for 10 min, then 100 ng recombinant PDK2 (Abnova, Taiwan) or Drp1 (Abnova, Taiwan) were added for 20 min at 37° C. in 40 μl of kinase buffer (20 mM Tris-HCl, 20 mM MgCl2, 1 μM DTT, 25 μM ATP, 1 mM CaCl2) containing 5 μCi [γ^32P] ATP (4500 Ci/mmol, ICN) in the presence of the low amount of PKC activators, phosphatidylserine (PS, 1.25 μg) and 1,2 dioleoyl sn-glycerol (DG, 0.04 μg). The kinase assay was terminated by adding loading Laemmli buffer containing 5% SDS and the samples were loaded on a 10% PAGE-SDS polyacrylamide gel, and the levels of phosphorylated PDK2 protein were determined by exposing the nitrocellulose to autoradiography. The nitrocellulose was also reprobed using respective antibodies for loading controls.
(§3) Since ΨPDK is derived from a PDK-like sequence in δPKC (FIG. 1B), it was reasoned that this peptide should act as a competitive inhibitor, selective for δPKC phosphorylation of PDK. To test this hypothesis directly, an in vitro kinase assay in which the ability of δPKC to phosphorylate PDK is determined was used.

εPKC = biological target: T2, εPKC (Homo sapiens, UniProt Q02156); assay: Proteinase K sensitivity of εPKC; type: binding
T2 sequence (Q02156 1-737): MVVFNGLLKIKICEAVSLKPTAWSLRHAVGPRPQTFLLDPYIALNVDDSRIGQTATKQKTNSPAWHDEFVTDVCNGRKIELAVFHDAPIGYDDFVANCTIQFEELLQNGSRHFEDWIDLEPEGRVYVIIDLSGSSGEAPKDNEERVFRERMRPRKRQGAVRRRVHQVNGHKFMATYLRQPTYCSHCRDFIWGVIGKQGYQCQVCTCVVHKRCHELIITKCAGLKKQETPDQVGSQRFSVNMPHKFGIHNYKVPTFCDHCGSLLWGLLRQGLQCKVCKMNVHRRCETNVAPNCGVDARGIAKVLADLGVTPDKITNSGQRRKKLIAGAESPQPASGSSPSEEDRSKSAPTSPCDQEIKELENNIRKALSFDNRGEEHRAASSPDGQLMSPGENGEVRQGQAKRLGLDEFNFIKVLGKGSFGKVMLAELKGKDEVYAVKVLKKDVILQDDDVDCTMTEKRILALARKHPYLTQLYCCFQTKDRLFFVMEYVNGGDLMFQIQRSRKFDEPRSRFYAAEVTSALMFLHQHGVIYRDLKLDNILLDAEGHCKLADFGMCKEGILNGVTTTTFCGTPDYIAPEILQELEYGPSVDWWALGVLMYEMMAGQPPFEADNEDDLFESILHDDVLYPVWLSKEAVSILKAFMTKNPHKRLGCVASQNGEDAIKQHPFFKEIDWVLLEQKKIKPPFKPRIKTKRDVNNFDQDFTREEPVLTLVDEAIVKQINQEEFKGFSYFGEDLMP

[2] = biological target: T3, δPKC phosphorylation of PDK (Homo sapiens, UniProt Q05655); assay: In vitro kinase assay: δPKC phosphorylation of PDK2; type: biochemical; conditions: recombinant δPKC and PDK2
T3 construct: purchased Invitrogen (δPKC); Abnova (PDK2)
Procedure: as §2, §3

[3] = system: fibroblasts derived from δPKC knock-out mice; assay: MARCKS phosphorylation in fibroblasts from δPKC knock-out mice; type: cell-based, mouse; conditions: fibroblasts lacking δPKC
Source text: Fibroblasts were isolated from wild-type or δPKC knockout mice (provided by Dr. Robert Messing, Gallo Center, UCSF) as previously described (Disatnik et al., 2004, J. Cell Sci., 117:4469-4479) and maintained in 20% fetal bovine serum.
Phosphorylation of myristoylated alanine-rich C kinase substrate (MARCKS), a ubiquitous PKC substrate, was monitored by Western blot of total cell lysates, using anti-phosphorylated MARCKS (Cell Signaling, Danvers, Mass.). Anti-MARCKS and anti-δPKC antibodies were obtained from Santa Cruz Biotechnology (Santa Cruz Biotechnology, CA, USA).
The ΨPDK sequence is found both in PDK and in the PDK-cognate protein, δPKC. It was therefore predicted that ΨPDK mimics inhibitory intra-molecular interaction, and, similar to ΨδRACK, ΨPDK should compete with the inhibitory interaction of PDK and δPKC, and increase δPKC-mediated functions (FIG. 1A). Phosphorylation of myristoylated alanine-rich C-kinase substrate (MARCKS) was used as a marker of PKC activity (Disatnik et al., 2004, J. Cell. Sci., 117:4469-4479). […] To determine the selectivity of the peptides for δPKC, fibroblasts derived from δPKC knock-out mice were also used.

T1 sequence (Q05655 whole entry): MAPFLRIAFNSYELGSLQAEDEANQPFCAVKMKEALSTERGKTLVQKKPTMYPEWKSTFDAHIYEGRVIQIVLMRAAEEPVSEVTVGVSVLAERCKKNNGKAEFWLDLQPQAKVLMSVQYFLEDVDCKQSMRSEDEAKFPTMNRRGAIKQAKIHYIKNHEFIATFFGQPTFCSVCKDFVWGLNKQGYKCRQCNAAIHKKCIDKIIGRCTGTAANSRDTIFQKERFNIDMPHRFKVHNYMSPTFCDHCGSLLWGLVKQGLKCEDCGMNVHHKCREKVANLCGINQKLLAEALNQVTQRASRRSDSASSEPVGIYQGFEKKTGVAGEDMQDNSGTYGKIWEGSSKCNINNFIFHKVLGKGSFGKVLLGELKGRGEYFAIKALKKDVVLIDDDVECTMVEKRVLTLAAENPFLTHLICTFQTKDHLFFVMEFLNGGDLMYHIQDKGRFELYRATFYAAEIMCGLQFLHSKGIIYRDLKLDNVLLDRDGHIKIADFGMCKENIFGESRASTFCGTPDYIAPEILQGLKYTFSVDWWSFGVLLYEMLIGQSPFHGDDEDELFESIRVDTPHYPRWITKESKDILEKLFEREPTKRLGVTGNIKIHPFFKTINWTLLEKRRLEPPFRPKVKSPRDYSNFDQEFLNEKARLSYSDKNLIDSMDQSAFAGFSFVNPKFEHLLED
T3 sequence (Q05655 whole entry): as above

ALSTER (not fully specified (C-terminus); also: TAT47-57 conjugated via disulfide) [ΨPDK, for cells and hearts conjugated to TAT47-57 via disulfide bond]
ALDH2 phosphorylation (ALDH2): neither ΨPDK nor δV1-1 affected ALDH2 phosphorylation | phosphorylation of E1 subunit of PDH (E1 subunit of PDH): did not occur | Drp1 phosphorylation by δPKC [1]: did not affect Drp1 phosphorylation | sensitivity of εPKC to proteolysis by PK (εPKC): unaffected | inhibition of δPKC phosphorylation of PDK [2]: ~30% | MARCKS phosphorylation [3]: did not affect MARCKS phosphorylation
